Assay results: ChEMBL document CHEMBL6177991, “Discovery of P11-2: A Potent First-in-Class MNK1-Targeting PROTAC Degrader for the Treatment of Cancer” (J Med Chem, 2025)
The source made the active and inactive calls. No cut-off for these calls is given here.

Columns and labels:
MV4-11 [1] = experiment: Induction of cell cycle arrest in human MV4-11 cells assessed as increase in accumulation of cells at G1 phase at 30 to […] incubated for 24 hrs by PI staining based flow cytometric analysis; assay type: functional; settings: dose lower 30.0 µM
[2] = Half life in male Sprague-Dawley rat at 5 mg/kg, ip measured up to 24 hrs by LC-MS analysis; assay type: ADME, organism-based; settings: in vivo
MV4-11 [3] = experiment: Induction of apoptosis in human MV4-11 cells assessed as viable cells at 100 nM incubated for 24 hrs by Annexin V-FITC/PI dual staining based flow cytometric analysis (reference value: 94.9 %); assay type: functional; settings: read-out: Activity
[4] = Hepatotoxicity in nude female NSG mouse xenografted with human MV4-11 cells assessed as change in serum TBIL level at 20 mg/kg, ip qd administrated for 16 days; assay type: toxicity, organism-based; settings: in vivo, 384 h, time 16 day
[5] = Toxicity in male ICR mouse assessed as change in serum ALP level at 100 mg/kg, ip measured after 14 days; assay type: organism-based; settings: in vivo, 336 h, time 14 day
[6] = Toxicity in male ICR mouse assessed as change in serum uric acid level at 100 mg/kg, ip measured after 14 days; assay type: organism-based; settings: in vivo, 336 h, time 14 day
[7] = Hepatotoxicity in nude female NSG mouse xenografted with human MV4-11 cells assessed as change in serum TBA level at 20 mg/kg, ip qd administrated for 16 days; assay type: toxicity, organism-based; settings: in vivo, 384 h, time 16 day
[8] = biological target: Protein cereblon/MAP kinase-interacting serine/threonine-protein kinase 2 (Homo sapiens, UniProt Q96SW2+Q9HBH9); experiment: PROTAC activity at CRBN/MNK2 in human MV4-11 cells assessed as inhibition of phosphorylated eIF4E level incubated for 24 hrs by immunoblot analysis; assay type: cell-based
Sequence of Protein cereblon/MAP kinase-interacting serine/threonine-protein kinase 2 (Q9HBH9 whole entry): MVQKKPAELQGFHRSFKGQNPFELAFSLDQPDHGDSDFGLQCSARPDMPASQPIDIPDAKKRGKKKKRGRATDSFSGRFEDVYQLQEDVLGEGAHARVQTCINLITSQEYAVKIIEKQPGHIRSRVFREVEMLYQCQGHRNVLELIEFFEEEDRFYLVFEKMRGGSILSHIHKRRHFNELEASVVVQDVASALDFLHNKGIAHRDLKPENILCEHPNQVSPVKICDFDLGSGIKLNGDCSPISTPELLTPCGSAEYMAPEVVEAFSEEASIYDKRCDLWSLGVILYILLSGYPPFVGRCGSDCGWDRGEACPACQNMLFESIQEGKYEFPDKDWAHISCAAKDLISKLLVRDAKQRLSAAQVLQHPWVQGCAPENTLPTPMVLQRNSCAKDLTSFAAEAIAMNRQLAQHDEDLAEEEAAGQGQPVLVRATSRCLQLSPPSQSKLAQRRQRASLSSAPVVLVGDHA
Sequence of Protein cereblon/MAP kinase-interacting serine/threonine-protein kinase 2 (Q96SW2 whole entry): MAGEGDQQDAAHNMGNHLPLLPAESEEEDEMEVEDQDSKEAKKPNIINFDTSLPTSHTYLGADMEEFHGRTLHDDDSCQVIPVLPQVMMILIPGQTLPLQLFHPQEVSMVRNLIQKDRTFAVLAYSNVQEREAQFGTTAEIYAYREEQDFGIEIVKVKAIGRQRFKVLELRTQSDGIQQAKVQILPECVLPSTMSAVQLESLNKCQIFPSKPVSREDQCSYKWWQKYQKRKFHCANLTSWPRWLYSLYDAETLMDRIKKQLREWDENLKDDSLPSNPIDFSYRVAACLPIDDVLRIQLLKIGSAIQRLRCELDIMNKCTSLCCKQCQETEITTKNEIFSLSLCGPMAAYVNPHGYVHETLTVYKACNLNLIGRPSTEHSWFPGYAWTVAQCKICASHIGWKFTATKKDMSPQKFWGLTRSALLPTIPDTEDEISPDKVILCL

MV4-11 [9] = experiment: Upregulation of mTOR pathway related protein expression in human MV4-11 cells by GO analysis; assay type: functional, cell-based
[10] = Toxicity in male ICR mouse assessed as change in serum TBIL level at 100 mg/kg, ip measured after 14 days; assay type: organism-based; settings: in vivo, 336 h, time 14 day
[11] = Toxicity in male ICR mouse assessed as histopathological change in spleen at 100 mg/kg, ip measured after 14 days by hematoxylin and eosin staining based analysis; assay type: organism-based; settings: in vivo, 336 h, time 14 day
[12] = Toxicity in male ICR mouse assessed as histopathological change in lung at 100 mg/kg, ip measured after 14 days by hematoxylin and eosin staining based analysis; assay type: organism-based; settings: in vivo, 336 h, time 14 day
MV4-11 [13] = experiment: Upregulation of ubiquitin-mediated protein degradation pathway related protein expression in human MV4-11 cells by GO analysis; assay type: functional, cell-based
MV4-11 [14] = experiment: Upregulation of RNA transport pathways related protein expression in human MV4-11 cells by GO analysis; assay type: functional, cell-based
[15] = Hepatotoxicity in nude female NSG mouse xenografted with human MV4-11 cells assessed as change in serum ALP level at 20 mg/kg, ip qd administrated for 16 days; assay type: toxicity, organism-based; settings: in vivo, 384 h, time 16 day
Mus musculus = experiment: In vivo PROTAC activity at CRBN/MNK1 in human MV4-11 cells xenografted in nude female NSG mouse assessed as induction of MNK1 degradation at 20 mg/kg, ip qd administrated for 16 days by Western blot analysis; assay type: functional, organism-based; settings: time 16.0 day
MV4-11 [16] = experiment: Induction of apoptosis in human MV4-11 cells assessed as necrotic cells at 100 nM incubated for 24 hrs by Annexin V-FITC/PI dual staining based flow cytometric analysis (reference value: 0.16 %); assay type: functional
[17] = Toxicity in nude female NSG mouse xenografted with human MV4-11 cells assessed as change in serum AST level at 20 mg/kg, ip qd administrated for 16 days; assay type: organism-based; settings: in vivo, 384 h, time 16 day
[18] = Cmax in male Sprague-Dawley rat at 5 mg/kg, ip measured up to 24 hrs by LC-MS analysis; assay type: ADME, organism-based; settings: in vivo
MV4-11 [19] = experiment: Induction of apoptosis in human MV4-11 cells assessed as late apoptotic cells at 100 nM incubated for 24 hrs by Annexin V-FITC/PI dual staining based flow cytometric analysis (reference value: 1.48 %); assay type: functional
MV4-11 [20] = experiment: Induction of apoptosis in human MV4-11 cells assessed as viable cells at 300 nM incubated for 24 hrs by Annexin V-FITC/PI dual staining based flow cytometric analysis (reference value: 94.9 %); assay type: functional; settings: read-out: Activity
[21] = AUC (0 to t) in male Sprague-Dawley rat at 5 mg/kg, ip measured up to 24 hrs by LC-MS analysis; assay type: ADME, organism-based; settings: in vivo
[22] = Toxicity in nude female NSG mouse xenografted with human MV4-11 cells assessed as change in body weight at 20 mg/kg, ip qd administrated for 16 days; assay type: organism-based; settings: in vivo, 384 h, time 16 day
MV4-11 [23] = experiment: Induction of apoptosis in human MV4-11 cells assessed as viable cells at 30 nM incubated for 24 hrs by Annexin V-FITC/PI dual staining based flow cytometric analysis (reference value: 94.9 %); assay type: functional; settings: read-out: Activity
MV4-11 [24] = experiment: Effect on MNK2 expression level in human MV4-11 cells at 300 nM incubated for 24 hrs by DIA-based quantitative proteomics analysis; assay type: functional, cell-based
[25] = Toxicity in male ICR mouse assessed as change in serum BUN level at 100 mg/kg, ip measured after 14 days; assay type: organism-based; settings: in vivo, 336 h, time 14 day
MV4-11 [26] = experiment: Upregulation of ubiquitin-mediated proteolysis pathway related protein expression in human MV4-11 cells by GO analysis; assay type: functional, cell-based
[27] = Cmax in male Sprague-Dawley rat at 20 mg/kg, po measured up to 24 hrs by LC-MS analysis; assay type: ADME, organism-based; settings: in vivo
MV4-11 [28] = experiment: Induction of cell cycle arrest in human MV4-11 cells assessed as decrease in accumulation of cells at G2 phase incubated for 24 hrs by PI staining based flow cytometric analysis; assay type: functional; settings: dose 30-300 µM
[29] = Half life in male Sprague-Dawley rat at 1 mg/kg, iv measured up to 24 hrs by LC-MS analysis; assay type: ADME, organism-based; settings: in vivo
[30] = Toxicity in male ICR mouse assessed as histopathological change in heart at 100 mg/kg, ip measured after 14 days by hematoxylin and eosin staining based analysis; assay type: organism-based; settings: in vivo, 336 h, time 14 day
MV4-11 [31] = experiment: Antitumor activity against human MV4-11 cells xenografted in nude female NSG mouse assessed as tumor growth inhibition at 20 mg/kg, ip qd administrated for 16 days by caliper method relative to control; assay type: functional; settings: MV4-11, 384 h, time 16 day, read-out: TGI
MV4-11 [32] = experiment: Upregulation of cell cycle signaling pathways related protein expression in human MV4-11 cells by KEGG analysis; assay type: functional, cell-based
MV4-11 [33] = experiment: Induction of apoptosis in human MV4-11 cells assessed as late apoptotic cells at 30 nM incubated for 24 hrs by Annexin V-FITC/PI dual staining based flow cytometric analysis (reference value: 1.48 %); assay type: functional
[34] = Toxicity in male ICR mouse assessed as change in serum TBA level at 100 mg/kg, ip measured after 14 days; assay type: organism-based; settings: in vivo, 336 h, time 14 day
[35] = Toxicity in nude female NSG mouse xenografted with human MV4-11 cells assessed as change in serum BUN level at 20 mg/kg, ip qd administrated for 16 days; assay type: organism-based; settings: in vivo, 384 h, time 16 day
MV4-11 [36] = experiment: Upregulation of ubiquitin-mediated proteolysis pathway related protein expression in human MV4-11 cells by KEGG analysis; assay type: functional, cell-based
MV4-11 [37] = experiment: Induction of apoptosis in human MV4-11 cells assessed as early apoptotic cells at 100 nM incubated for 24 hrs by Annexin V-FITC/PI dual staining based flow cytometric analysis (reference value: 3.42 %); assay type: functional

Structure (SMILES): O=C1CCC(N2Cc3c(NC(=O)CCCCCC(=O)N4CCC(C(=O)Nc5ncc(-c6ccccc6)s5)CC4)cccc3C2=O)C(=O)N1 (stereo not drawn)
- Activity (MV4-11 [1]): Active
- half-life [2]: 5.2 h
- viability at 0.1 µM (MV4-11 [3]): 71.5%
- Activity [4]: Non-toxic
- Activity [5]: Non-toxic
- Activity [6]: Non-toxic
- Activity [7]: Non-toxic
- IC50 [8]: 0.0221 µM
- Activity (MV4-11 [9]): Active
- Activity [10]: Non-toxic
- Activity [11]: Non-toxic
- Activity [12]: Non-toxic
- Activity (MV4-11 [13]): Active
- Activity (MV4-11 [14]): Active
- Activity [15]: Non-toxic
- Activity (Mus musculus): Active
- Activity (MV4-11 [16]): 0.69%
- Activity [17]: Non-toxic
- Cmax [18]: 1.97 µg/mL
- Activity (MV4-11 [19]): 13.7%
- viability at 0.3 µM (MV4-11 [20]): 28%
- AUC(0-t) at 24 h [21]: 9.63 µg·h/mL
- Activity [22]: Non-toxic
- viability at 0.03 µM (MV4-11 [23]): 85.8%
- Activity (MV4-11 [24]): No effect
- Activity [25]: Non-toxic
- Activity (MV4-11 [26]): Active
- Cmax [27]: 0.16 µg/mL
- Activity (MV4-11 [28]): Dose-dependent-effect
- half-life [29]: 4.3 h
- Activity [30]: Non-toxic
- inhibition in vivo at 20 mg/kg (MV4-11 [31]): > 90%
- Activity (MV4-11 [32]): Active
- Activity (MV4-11 [33]): 7.49%
- Activity [34]: Non-toxic
- Activity [35]: Non-toxic
- Activity (MV4-11 [36]): Active
- Activity (MV4-11 [37]): 14.1%
